The values that follow come from PubChem BioAssay AID192 (DTP/NCI, 2004).

“And” between values parts separate entries of the source, which are not always exact repeats. Equal entries are not always repeated. Toxic doses and inconclusive results are not listed.

This test concerns BDF1 mice, B16 melanoma ip, median survival T/C. The experiment in a line: NCI In Vivo Anticancer Drug Screen. Data for tumor model B16 Melanoma (intraperitoneal) in B6D2F1 (BDF1) mice. The following applies: endpoint: median survival time, higher = longer survival. Put shortly:
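Tumor-bearing mice received test compound or vehicle. Survival or tumor size was then measured in both groups. The treated-group figure was divided by the control-group figure.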

Setting [1] is: dose: 50.0 mg/kg/injection, schedule: Q01DX009 (ip), vehicle: Klucel (hydroxypropylcellulose) (HPC).
[2] abbreviates: dose: 100.0 mg/kg/injection, schedule: Q01DX009 (ip), vehicle: Klucel (hydroxypropylcellulose) (HPC).
Where [3] appears, read: dose: 200.0 mg/kg/injection, schedule: Q01DX009 (ip), vehicle: Klucel (hydroxypropylcellulose) (HPC).
Setting [4] is: dose: 25.0 mg/kg/injection, schedule: Q01DX009 (ip), vehicle: saline with Tween-80.
[5] abbreviates: dose: 50.0 mg/kg/injection, schedule: Q01DX009 (ip), vehicle: saline with Tween-80.
[6] abbreviates: dose: 100.0 mg/kg/injection, schedule: Q01DX009 (ip), vehicle: saline with Tween-80.
Setting [7] is: dose: 12.5 mg/kg/injection, schedule: Q01DX009 (ip), vehicle: Klucel (hydroxypropylcellulose) (HPC).
The mark [8] stands for this setting: dose: 25.0 mg/kg/injection, schedule: Q01DX009 (ip), vehicle: Klucel (hydroxypropylcellulose) (HPC).

As to `O=c1cnn(C2OC(CO)C(O)C2O)c(=O)[nH]1` (centres undefined), the T/C is, setting by setting: (dose: 75.0 mg/kg/injection, schedule: Q01DX009 (ip), vehicle: Klucel (hydroxypropylcellulose) (HPC)) 99 % of control and 100 % of control; (dose: 125.0 mg/kg/injection, schedule: Q03HX024 (ip), vehicle: water) 116 % of control; (dose: 125.0 mg/kg/injection, schedule: Q03HX032 (ip), vehicle: water) 119 % of control; (dose: 150.0 mg/kg/injection, schedule: Q01DX009 (ip), vehicle: Klucel (hydroxypropylcellulose) (HPC)) 92 % of control and 101 % of control; (dose: 250.0 mg/kg/injection, schedule: Q03HX024 (ip), vehicle: water) 124 % of control; (dose: 300.0 mg/kg/injection, schedule: Q01DX009 (ip), vehicle: Klucel (hydroxypropylcellulose) (HPC)) 100 % of control and 102 % of control. Also, the T/C runs as follows: (dose: 600.0 mg/kg/injection, schedule: Q01DX009 (ip), vehicle: Klucel (hydroxypropylcellulose) (HPC)) 101 % of control and 102 % of control; (dose: 1200.0 mg/kg/injection, schedule: Q01DX009 (ip), vehicle: Klucel (hydroxypropylcellulose) (HPC)) 99 % of control.

As for `C=CCOCC(O)CN(CC)c1ccccc1` (centres undefined), the T/C (dose: 75.0 mg/kg/injection, schedule: Q04DX003 (ip), vehicle: Klucel (hydroxypropylcellulose) (HPC)) was 89 % of control; the T/C (dose: 150.0 mg/kg/injection, schedule: Q04DX003 (ip), vehicle: Klucel (hydroxypropylcellulose) (HPC)) is 89 % of control; the T/C (dose: 300.0 mg/kg/injection, schedule: Q04DX003 (ip), vehicle: Klucel (hydroxypropylcellulose) (HPC)) is 98 % of control.

In the case of `C1CN1P1(N2CC2)=NP(N2CC2)(N2CC2)=NP(N2CC2)(N2CC2)=N1`, the T/C runs as follows: (dose: 0.25 mg/kg/injection, schedule: Q02DX009 (ip), vehicle: saline with Tween-80) 87 % of control; (dose: 0.5 mg/kg/injection, schedule: Q01DX009 (ip), vehicle: saline with Tween-80) 108 % of control; (dose: 0.5 mg/kg/injection, schedule: Q02DX009 (ip), vehicle: saline with Tween-80) 101 % of control; (dose: 1.0 mg/kg/injection, schedule: Q01DX009 (ip), vehicle: saline with Tween-80) 124 % of control; (dose: 1.0 mg/kg/injection, schedule: Q02DX009 (ip), vehicle: saline with Tween-80) 87 % of control and 94 % of control; (dose: 2.0 mg/kg/injection, schedule: Q01DX009 (ip), vehicle: saline with Tween-80) 123 % of control. Also, the T/C (dose: 2.0 mg/kg/injection, schedule: Q02DX009 (ip), vehicle: saline with Tween-80) is 99 % of control and 122 % of control; the T/C (dose: 8.0 mg/kg/injection, schedule: Q01DX009 (ip), vehicle: saline with Tween-80) is 170 % of control; the T/C (dose: 8.0 mg/kg/injection, schedule: Q02DX009 (ip), vehicle: saline with Tween-80) is 153 % of control.

In the case of `Nc1nc(SCc2ccccc2)c2[nH]cnc2n1`, the T/C is, setting by setting: (dose: 3.13 mg/kg/injection, schedule: Q01DX009 (ip), vehicle: saline sonified) 95 % of control; (dose: 6.25 mg/kg/injection, schedule: Q01DX009 (ip), vehicle: saline sonified) 100 % of control; (dose: 12.5 mg/kg/injection, schedule: Q01DX009 (ip), vehicle: saline sonified) 93 % of control; (dose: 25.0 mg/kg/injection, schedule: Q01DX009 (ip), vehicle: saline sonified) 97 % of control.

`CCOC(=O)C1CC(c2ccccc2)=NN1c1ccccc1` (centres undefined): the T/C is, setting by setting: under setting [1], 97 % of control; under setting [2], 104 % of control; under setting [3], 100 % of control; (dose: 400.0 mg/kg/injection, schedule: Q01DX009 (ip), vehicle: Klucel (hydroxypropylcellulose) (HPC)) 97 % of control.

`COc1ccc(OC)c(C2N(Cc3ccccc3N(C)C)CCCN2Cc2ccccc2N(C)C)c1`: the T/C is, setting by setting: under setting [4], 102 % of control; under setting [5], 93 % of control; under setting [6], 90 % of control.

Take `CCCCCCCCC(=O)CCC`: the T/C runs as follows: (dose: 100.0 mg/kg/injection, schedule: Q04DX003 (ip), vehicle: Klucel (hydroxypropylcellulose) (HPC)) 88 % of control; (dose: 200.0 mg/kg/injection, schedule: Q04DX003 (ip), vehicle: Klucel (hydroxypropylcellulose) (HPC)) 90 % of control; (dose: 400.0 mg/kg/injection, schedule: Q04DX003 (ip), vehicle: Klucel (hydroxypropylcellulose) (HPC)) 94 % of control.

For `O=[N+]([O-])c1ccc(C(O)C=C(C(F)(F)F)C(F)(F)F)cc1` (centres undefined), the T/C is, setting by setting: under setting [7], 93 % of control; under setting [8], 89 % of control.

Turning to `O=C(O)/C=C/C(=O)Nc1ccc(N=Nc2ccccc2)cc1`, the T/C by setting is: under setting [1], 104 % of control; under setting [2], 105 % of control; under setting [3], 97 % of control.

With `[O-][n+]1c(CCl)nc2cccc3c2c1-c1ccccc1-3`, the T/C was 101 % of control under setting [4], 96 % of control under setting [5] and 90 % of control under setting [6].

Regarding `OCCN1CCN(CCCN2c3ccccc3Sc3ccc(C(F)(F)F)cc32)CC1`, the T/C reads like this: (dose: 0.04 mg/kg/injection, schedule: Q01DX009 (ip), vehicle: saline) 91 % of control; (dose: 0.09 mg/kg/injection, schedule: Q01DX009 (ip), vehicle: saline) 90 % of control and 106 % of control; (dose: 0.19 mg/kg/injection, schedule: Q01DX009 (ip), vehicle: saline) 102 % of control and 93 % of control; (dose: 0.39 mg/kg/injection, schedule: Q01DX009 (ip), vehicle: saline) 103 % of control and 109 % of control; (dose: 0.78 mg/kg/injection, schedule: Q01DX009 (ip), vehicle: saline) 99 % of control and 91 % of control; (dose: 1.56 mg/kg/injection, schedule: Q01DX009 (ip), vehicle: saline) 97 % of control.

Take `Oc1nc(/N=C2/N=c3ccc(Cl)cc3=N2)[nH]c1O`: the T/C is, setting by setting: under setting [7], 86 % of control; under setting [8], 93 % of control; under setting [1], 86 % of control.

Turning to `CS(=O)(=O)OCCC(=O)N1CCN(C(=O)CCOS(C)(=O)=O)CC1`, the T/C runs as follows: (dose: 1.56 mg/kg/injection, schedule: Q01DX009 (ip), vehicle: suspension in saline) 114 % of control; (dose: 3.12 mg/kg/injection, schedule: Q01DX009 (ip), vehicle: suspension in saline) 111 % of control; (dose: 6.25 mg/kg/injection, schedule: Q01DX009 (ip), vehicle: suspension in saline) 114 % of control; (dose: 12.5 mg/kg/injection, schedule: Q01DX009 (ip), vehicle: suspension in saline) 124 % of control; under setting [4], 150 % of control; under setting [5], 152 % of control and 170 % of control. Moreover, the T/C runs as follows: (dose: 50.0 mg/kg/injection, schedule: Q01DX009 (ip), vehicle: suspension in saline) 171 % of control; under setting [6], 160 % of control.

As for `O=C(O)c1cc2ccccc2o1`, the T/C reads like this: (dose: 16.5 mg/kg/injection, schedule: Q01DX009 (ip), vehicle: saline with Tween-80) 100 % of control; under setting [4], 100 % of control; (dose: 37.5 mg/kg/injection, schedule: Q01DX009 (ip), vehicle: saline with Tween-80) 92 % of control; under setting [5], 111 % of control; under setting [6], 102 % of control.

Regarding `Cc1c2ccnc(-c3ccccc3)c2cc2c1[nH]c1ccccc12`, the T/C under setting [4] was 115 % of control; the T/C under setting [5] is 104 % of control; the T/C under setting [6] is 94 % of control and 96 % of control.

Consider `COc1cccc2c1C(=O)c1c(O)c3c(c(O)c1C2=O)C[C@@](O)(C(C)=O)C[C@@H]3OC1CC(N2CCC(OC)CC2)C(O)C(C)O1` (some centres undefined), for which the T/C is 123 % of control (dose: 1.56 mg/kg/injection, schedule: Q01DX001 (ip), vehicle: water) and 162 % of control (dose: 6.25 mg/kg/injection, schedule: Q01DX001 (ip), vehicle: water).

With `C=CCN(CC=C)C(=O)CCN1CC1`, the T/C reads like this: (dose: 1.25 mg/kg/injection, schedule: Q01DX009 (ip), vehicle: saline) 100 % of control; (dose: 1.25 mg/kg/injection, schedule: Q04DX003 (ip), vehicle: saline) 102 % of control; (dose: 2.5 mg/kg/injection, schedule: Q01DX009 (ip), vehicle: saline) 100 % of control; (dose: 2.5 mg/kg/injection, schedule: Q04DX003 (ip), vehicle: saline) 100 % of control; (dose: 5.0 mg/kg/injection, schedule: Q01DX009 (ip), vehicle: saline) 100 % of control; (dose: 5.0 mg/kg/injection, schedule: Q04DX003 (ip), vehicle: saline) 105 % of control.

Consider `CCO`, for which the T/C runs as follows: (dose: 250.0 mg/kg/injection, schedule: Q01DX009 (ip), vehicle: saline) 109 % of control; (dose: 500.0 mg/kg/injection, schedule: Q01DX009 (ip), vehicle: saline) 86 % of control; (dose: 1000.0 mg/kg/injection, schedule: Q01DX009 (ip), vehicle: saline) 104 % of control; (dose: 2000.0 mg/kg/injection, schedule: Q01DX009 (ip), vehicle: saline) 93 % of control.
